Measurements taken from patent US11607393B2, “Drug delivery method for targeting cancer stem cells” (priority 2017, dated 2023).

Tests used:
[1] = system: MDA-MB-231 human breast cancer cells; assay: MDA-MB-231 cells in 3D non-adherent PEG diacrylate matrix (stem sub-population), cell viability and tumorsphere number; assay type: cell-based
[2] = system: MDA-MB-231 human breast cancer cells; assay: MDA-MB-231 cells on 2D adherent polystyrene culture plates (differentiated sub-population), cell viability; assay type: cell-based
Method: (§1) MDA-MB-231 human breast cancer cells were cultured on 2D adherent polystyrene culture plates that enriched the differentiated cell sub-population (CDC) and in 3D polyethylene glycol diacrylate crosslinked non-adherent matrix that enriches the stem sub-population (CSC). FIGS. 4A-4D compare cell content and the expression of CD44, ABCG2, and EGFR markers as a function of time.
FIGS. 5A-5D show the response of the MDA-MB-231 human breast cancer cells cultured in 2D adherent plates and 3D non-adherent matrix to treatment with Doxorubicin (DOX) cancer drug. For the 2D culture, cell viability decreased exponentially as the drug concentration increased (FIG. 5A) and reached about 5% as the drug concentration was increased to 5 μM.

CD44 = assay: Expression of CSC marker CD44 in MDA-MB-231 cells in 3D non-adherent matrix; assay type: cell-based, human
Method: as §1
(§2) FIG. 6A and FIG. 6B show the expression of CSC markers CD44 and EGFR, respectively, of MDA-MB-231 (MDA) human breast cancer cells grown in a 3D non-adherent matrix, as described in Example 1 above, after exposure to free Paclitaxel (PTX) or PTX conjugated to POSS nanoparticles (PTXconjPOSS) as a function of incubation time.

EGFR = assay: Expression of stem cell marker EGFR in MDA-MB-231 cells in 3D non-adherent matrix; assay type: cell-based, human; settings: as a function of incubation time (FIG. 6B)
Method: as §1, §2

## COc1cccc2c1C(=O)c1c(O)c3c(c(O)c1C2=O)C[C@@](O)(C(=O)CO)C[C@@H]3O[C@H]1C[C@H](N)[C@H](O)[C@H](C)O1 [DOX, Doxorubicin]
[1]; 3D matrix, 0.5 μM DOX concentration (FIG. 5C)
  number of tumorspheres: first increased
[1]; 3D matrix, DOX concentration above 0.5 μM (FIG. 5C)
  number of tumorspheres, % of the initial number: 85%
[1]; 3D matrix, drug concentration 0.5 μM (FIG. 5B)
  cell viability: first increased
[1]; 3D non-adherent matrix, stem cell sub-population dominates (FIGS. 5B-5D)
  effectiveness against cells in 3D non-adherent matrix: not effective
[1]; Homo sapiens, MDA-MB-231, 3D matrix, 5 μM DOX concentration (FIG. 5B)
  viability at 5 µM: 35%
[2]; 2D culture (FIG. 5A)
  cells removed: 95%
[2]; Homo sapiens, MDA-MB-231, 2D culture, drug concentration 5 μM (FIG. 5A)
  viability at 5 µM: ~5%
CD44; 3D matrix, higher DOX concentrations (FIG. 5D)
  expression of CSC marker CD44: dramatically increased

## CC(=O)O[C@H]1C(=O)[C@@]2(C)[C@H]([C@H](OC(=O)c3ccccc3)[C@]3(O)C[C@H](OC(=O)[C@H](O)[C@@H](NC(=O)c4ccccc4)c4ccccc4)C(C)=C1C3(C)C)[C@]1(OC(C)=O)CO[C@@H]1C[C@@H]2O [PTX, Paclitaxel]
[2]; no data shown
  effectiveness against the differentiated sub-population of cancer cells: effective
CD44; 3D non-adherent matrix, as a function of incubation time (FIG. 6A)
  expression of CD44: very high expression
CD44; concluded from CD44 and EGFR expression in 3D non-adherent matrix
  toxicity to CSCs: not toxic to CSCs
EGFR
  expression of EGFR: very high expression
